Where two headings read alike, the source gives them in different places.
Key:
ATR/ATRIP complex = ATR/ATRIP complex (Homo sapiens (Human), UniProt Q13535); experiment: ATR/ATRIP enzymatic assay (Caliper-based); format: biochemical; details: FAM-labeled RAD17 peptide, ATP
Summary of the method: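 FLAG-TEV-ATR/His6-ATRIP co-expressed in HEK293 and anti-FLAG purified. Compound preincubated 30 min at 28 °C with enzyme (2x solution 4 nM), then FAM-RAD17 peptide (2x solution 10 uM, 2 μM ATP) added for 6 h at 28 °C; HEPES pH 8, 10 mM MnCl2. Caliper conversion read-out, IC50 from four-parameter fit.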

[1] = system: ATR-driven phosphorylation of Chk1 kinase at Serine 345 in HT-29 colorectal adenocarcinoma cells; experiment: pCHK1 cellular assay (CHK1 p-Ser345 AlphaScreen SureFire); format: cell-based; details: Homo sapiens, HT-29, HT-29 cells, 4-nitroquinoline N-oxide 12 uM; read-out: Cell IC50 (pCHK1 IC50 values)
Summary of the method: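 HT-29 cells seeded overnight, treated with 1:3 serially diluted compound for 90 minutes at 37° C., then 12 uM (final) 4-nitroquinoline N-oxide for 120 minutes. Lysates read for Chk1 p-Ser345 by AlphaScreen SureFire; IC50 from four-parameter logistic fit, normalized to DMSO (max) and 5 uM ATR inhibitor (min).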

[2] = read-out: ATR/ATRIP Enzyme IC50

Chain of ATR/ATRIP complex (Q13535 whole entry): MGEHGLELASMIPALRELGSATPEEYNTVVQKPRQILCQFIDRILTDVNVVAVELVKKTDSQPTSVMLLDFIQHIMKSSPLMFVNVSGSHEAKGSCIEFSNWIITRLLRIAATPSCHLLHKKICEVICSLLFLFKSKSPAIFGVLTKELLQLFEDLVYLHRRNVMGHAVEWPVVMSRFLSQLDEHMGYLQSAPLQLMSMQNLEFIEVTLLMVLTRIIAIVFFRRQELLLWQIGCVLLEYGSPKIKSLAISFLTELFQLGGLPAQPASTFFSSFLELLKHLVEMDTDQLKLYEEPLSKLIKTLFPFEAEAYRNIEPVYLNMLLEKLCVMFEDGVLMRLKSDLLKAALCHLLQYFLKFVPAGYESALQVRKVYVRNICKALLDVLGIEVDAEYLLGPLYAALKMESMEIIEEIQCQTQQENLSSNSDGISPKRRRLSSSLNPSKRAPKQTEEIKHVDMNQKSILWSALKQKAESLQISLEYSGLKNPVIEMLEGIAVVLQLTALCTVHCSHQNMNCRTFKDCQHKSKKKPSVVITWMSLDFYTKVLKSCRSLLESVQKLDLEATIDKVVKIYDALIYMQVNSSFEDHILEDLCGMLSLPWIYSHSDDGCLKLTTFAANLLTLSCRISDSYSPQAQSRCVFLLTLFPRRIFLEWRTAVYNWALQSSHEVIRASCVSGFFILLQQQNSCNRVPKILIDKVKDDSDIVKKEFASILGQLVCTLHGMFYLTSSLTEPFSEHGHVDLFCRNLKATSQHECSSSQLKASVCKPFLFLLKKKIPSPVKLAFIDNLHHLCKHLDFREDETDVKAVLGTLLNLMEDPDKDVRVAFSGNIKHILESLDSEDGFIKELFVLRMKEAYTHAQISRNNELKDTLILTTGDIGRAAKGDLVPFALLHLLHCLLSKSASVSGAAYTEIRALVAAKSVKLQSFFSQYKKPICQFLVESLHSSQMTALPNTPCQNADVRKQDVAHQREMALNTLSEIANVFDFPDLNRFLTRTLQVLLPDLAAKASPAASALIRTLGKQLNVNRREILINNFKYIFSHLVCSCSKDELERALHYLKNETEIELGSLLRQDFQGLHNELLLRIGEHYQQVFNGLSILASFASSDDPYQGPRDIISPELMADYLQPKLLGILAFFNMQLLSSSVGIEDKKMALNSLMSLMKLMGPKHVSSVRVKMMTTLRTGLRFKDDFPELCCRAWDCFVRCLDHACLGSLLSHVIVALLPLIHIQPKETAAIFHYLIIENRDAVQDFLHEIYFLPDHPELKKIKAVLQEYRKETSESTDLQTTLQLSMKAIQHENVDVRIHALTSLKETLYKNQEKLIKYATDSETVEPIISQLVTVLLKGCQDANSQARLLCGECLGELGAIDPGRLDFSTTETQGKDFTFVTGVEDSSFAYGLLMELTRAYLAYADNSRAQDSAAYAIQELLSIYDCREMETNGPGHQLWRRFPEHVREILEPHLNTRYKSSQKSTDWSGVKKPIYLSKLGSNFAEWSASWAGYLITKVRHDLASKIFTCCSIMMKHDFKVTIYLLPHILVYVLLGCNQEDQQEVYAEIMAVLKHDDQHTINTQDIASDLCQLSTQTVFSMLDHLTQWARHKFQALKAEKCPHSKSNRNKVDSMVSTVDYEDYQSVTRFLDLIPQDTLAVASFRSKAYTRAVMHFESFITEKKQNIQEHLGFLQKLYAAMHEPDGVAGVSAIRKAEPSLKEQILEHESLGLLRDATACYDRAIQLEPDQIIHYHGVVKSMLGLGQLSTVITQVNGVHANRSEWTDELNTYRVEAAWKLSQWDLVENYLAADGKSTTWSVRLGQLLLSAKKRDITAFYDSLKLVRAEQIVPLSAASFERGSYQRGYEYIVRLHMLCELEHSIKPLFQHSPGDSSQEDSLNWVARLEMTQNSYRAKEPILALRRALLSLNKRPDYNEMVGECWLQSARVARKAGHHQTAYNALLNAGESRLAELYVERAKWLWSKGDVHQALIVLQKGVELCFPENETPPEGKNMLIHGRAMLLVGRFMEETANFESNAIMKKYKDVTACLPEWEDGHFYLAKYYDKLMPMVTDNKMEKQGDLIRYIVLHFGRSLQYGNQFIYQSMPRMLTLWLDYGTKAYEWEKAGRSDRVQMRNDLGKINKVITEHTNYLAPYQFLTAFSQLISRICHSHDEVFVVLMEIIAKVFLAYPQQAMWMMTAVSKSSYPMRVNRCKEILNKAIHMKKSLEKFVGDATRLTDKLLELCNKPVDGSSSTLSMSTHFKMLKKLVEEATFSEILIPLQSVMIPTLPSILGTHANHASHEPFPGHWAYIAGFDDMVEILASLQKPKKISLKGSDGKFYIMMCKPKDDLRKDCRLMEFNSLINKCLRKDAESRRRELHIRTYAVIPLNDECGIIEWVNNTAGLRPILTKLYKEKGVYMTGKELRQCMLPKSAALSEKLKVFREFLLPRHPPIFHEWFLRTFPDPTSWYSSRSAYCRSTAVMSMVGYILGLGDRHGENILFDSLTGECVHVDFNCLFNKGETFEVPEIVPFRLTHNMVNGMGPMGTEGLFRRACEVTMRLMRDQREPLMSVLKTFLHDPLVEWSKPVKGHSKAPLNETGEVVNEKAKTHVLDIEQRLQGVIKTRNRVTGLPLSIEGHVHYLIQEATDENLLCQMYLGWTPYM
Chain of ATR/ATRIP complex (Q8WXE1 whole entry partner): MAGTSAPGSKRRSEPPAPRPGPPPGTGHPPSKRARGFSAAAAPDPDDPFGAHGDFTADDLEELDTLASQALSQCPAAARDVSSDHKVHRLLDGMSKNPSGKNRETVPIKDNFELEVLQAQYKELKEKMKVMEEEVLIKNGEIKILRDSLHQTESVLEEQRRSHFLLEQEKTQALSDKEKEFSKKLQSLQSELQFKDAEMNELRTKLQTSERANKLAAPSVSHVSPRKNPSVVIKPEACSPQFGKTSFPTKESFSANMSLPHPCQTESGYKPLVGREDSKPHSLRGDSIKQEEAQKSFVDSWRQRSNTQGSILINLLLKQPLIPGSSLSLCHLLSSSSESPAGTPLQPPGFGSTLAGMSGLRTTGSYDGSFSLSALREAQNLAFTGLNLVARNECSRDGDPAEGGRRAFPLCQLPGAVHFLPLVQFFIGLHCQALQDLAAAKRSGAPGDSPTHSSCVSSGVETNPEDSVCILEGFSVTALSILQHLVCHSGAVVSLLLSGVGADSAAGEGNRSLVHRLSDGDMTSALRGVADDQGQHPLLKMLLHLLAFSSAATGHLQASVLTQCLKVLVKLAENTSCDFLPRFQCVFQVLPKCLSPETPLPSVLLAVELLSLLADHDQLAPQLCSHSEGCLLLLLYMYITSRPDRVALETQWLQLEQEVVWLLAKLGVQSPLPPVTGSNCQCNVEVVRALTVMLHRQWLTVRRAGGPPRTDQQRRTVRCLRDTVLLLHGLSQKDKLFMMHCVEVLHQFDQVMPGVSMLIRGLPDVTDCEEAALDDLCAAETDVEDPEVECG

Structure (SMILES) | IC50 (ATR/ATRIP complex; [2]) [nM] | IC50 [1] [nM] | IC50 (ATR/ATRIP complex; estimated range, read-out: ATR/ATRIP Enzyme IC50 (estimated class)) [nM]
C[C@@H]1Cc2ncnc(N3CCC4(CC3)CNC(=O)O4)c2CN1c1cc(Cl)nc2[nH]ccc12 [Example 31, 8-[(7R)-6-{6-chloro-1H-pyrrolo[2,3-b]pyridin-4-yl}-7-methyl-5H,6H,7H,8H-pyrido[4,3-d]pyrimidin-4-yl]-1-oxa-3,8-diazaspiro[4.5]decan-2-one] | 434 | 72 | –
C[C@@H]1Cc2ncnc(N3C[C@H]4CC[C@@H](C3)[C@@H]4NS(C)(=O)=O)c2CN1c1cc(Cl)nc2[nH]ccc12 [Example 38, N-((1R,5S)-(8-anti)-3-((R)-6-(6-chloro-1H-pyrrolo[2,3-b]pyridin-4-yl)-7-methyl-5,6,7,8-tetrahydropyrido[4,3-d]pyrimidin-4-yl)-3-azabicyclo[3.2.1]octan-8-yl)methanesulfonamide] | 929 | 83 | –
C[C@@H]1Cc2ncnc(C3CCCN(S(C)(=O)=O)C3)c2CN1c1ccnc2[nH]ccc12 (stereo partly drawn) [Example 16, 1-methanesulfonyl-3-[(7R)-7-methyl-6-{1H-pyrrolo[2,3-b]pyridin-4-yl}-5H,6H,7H,8H-pyrido[4,3-d]pyrimidin-4-yl]piperidine] | 3570 | 140 | –
CCS(=O)(=O)N1CCCC(c2ncnc3c2CN(c2cc(Cl)nc4[nH]ccc24)[C@H](C)C3)C1 (stereo partly drawn) [Example 24, 3-[(7R)-6-{6-chloro-1H-pyrrolo[2,3-b]pyridin-4-yl}-7-methyl-5H,6H,7H,8H-pyrido[4,3-d]pyrimidin-4-yl]-1-(ethanesulfonyl)-piperidine] | – | 285 | 1000 to 10000
C[C@@H]1Cc2ncnc(C3CCN(S(C)(=O)=O)CC3)c2CN1c1cc(OC2CCC2)nc2[nH]ccc12 [Example 99, (R)-6-(6-cyclobutoxy-1H-pyrrolo[2,3-b]pyridin-4-yl)-7-methyl-4-(1-(methylsulfonyl)piperidin-4-yl)-5,6,7,8-tetrahydro-pyrido[4,3-d]pyrimidine] | 75 | 9 | –

Now from value to compound:

IC50 (ATR/ATRIP complex; [2]) [nM] | IC50 [1] [nM] | IC50 (ATR/ATRIP complex; estimated range, read-out: ATR/ATRIP Enzyme IC50 (estimated class)) [nM] | Structure (SMILES)
1290 | 586 | – | CS(=O)(=O)N1CCC(c2ncnc3c2CN(c2ccnc4[nH]ccc24)C(CF)C3)CC1 (centres unmarked) [Example 92]
282 | 21 | – | CCC1(O)CCN(c2ncnc3c2CN(c2cc(Cl)nc4[nH]ccc24)[C@H](C)C3)CC1 [Example 46, (R)-1-(6-(6-Chloro-1H-pyrrolo[2,3-b]pyridin-4-yl)-7-methyl-5,6,7,8-tetrahydropyrido[4,3-d]pyrimidin-4-yl)-4-ethylpiperidin-4-ol]
840 | 183 | – | C[C@@H]1Cc2ncnc([C@@H]3CCN(S(C)(=O)=O)C3)c2CN1c1ccnc2[nH]ccc12 [Example 57a, (R)-7-methyl-4-((R)-1-(methylsulfonyl)pyrrolidin-3-yl)-6-(1H-pyrrolo[2,3-b]pyridin-4-yl)-5,6,7,8-tetrahydropyrido[4,3-d]pyrimidine]
878 | 209 | – | CS(=O)(=O)N1CCC(c2ncnc3c2CN(c2ccnc4[nH]ccc24)[C@H](CF)C3)CC1 [Example 52b, (S)-7-(fluoromethyl)-4-(1-(methylsulfonyl)piperidin-4-yl)-6-(1H-pyrrolo[2,3-b]pyridin-4-yl)-5,6,7,8-tetrahydropyrido[4,3-d]pyrimidine]
378 | 39 | – | C[C@@H]1Cc2ncnc(N3CCCC(C(C)(C)O)C3)c2CN1c1cc(Cl)nc2[nH]ccc12 (stereo in doubt) [Example 45, 2-((R)-1-((R)-6-(6-Chloro-1H-pyrrolo[2,3-b]pyridin-4-yl)-7-methyl-5,6,7,8-tetrahydropyrido[4,3-d]pyrimidin-4-yl)piperidin-3-yl)propan-2-ol]

From patent US10421765B2, “Tetrahydropyrido[4,3-d]pyrimidine inhibitors of ATR kinase” (Board of Regents, The University of Texas System, priority 2017, dated 2019)
